Source: PubChem BioAssay (NCI)
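At the GI50, growth is halved. TGI denotes the concentration required for complete inhibition of growth.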

Tests used:
Assay in all cases: DTP human tumour cell line panel, 384-well format
HT29 colon = tested on: HT29 colon
MCF7 breast = tested on: MCF7 breast
MDA-MB-435 melanoma = tested on: MDA-MB-435 melanoma
KM12 colon = tested on: KM12 colon
SN12C renal = tested on: SN12C renal
MALME-3M melanoma = tested on: MALME-3M melanoma
HOP-92 NSCLC = tested on: HOP-92 NSCLC
NCI-H226 lung = tested on: NCI-H226 lung
HOP-62 NSCLC = tested on: HOP-62 NSCLC
NCI-H460 NSCLC = tested on: NCI-H460 NSCLC
HCC-2998 colon = tested on: HCC-2998 colon
T-47D breast = tested on: T-47D breast
PC-3 prostate = tested on: PC-3 prostate
UO-31 renal = tested on: UO-31 renal
MDA-MB-468 breast = tested on: MDA-MB-468 breast
SK-OV-3 ovarian = tested on: SK-OV-3 ovarian
LOX IMVI melanoma = tested on: LOX IMVI melanoma
SK-MEL-2 melanoma = tested on: SK-MEL-2 melanoma
OVCAR-8 ovarian = tested on: OVCAR-8 ovarian
SR leukemia = tested on: SR leukemia
SK-MEL-28 melanoma = tested on: SK-MEL-28 melanoma
SW-620 colon = tested on: SW-620 colon
SNB-19 CNS = tested on: SNB-19 CNS
HCT-15 colon = tested on: HCT-15 colon
MDA-MB-231 breast = tested on: MDA-MB-231 breast
SF-268 CNS = tested on: SF-268 CNS
MOLT-4 leukemia = tested on: MOLT-4 leukemia
OVCAR-5 ovarian = tested on: OVCAR-5 ovarian
786-0 renal = tested on: 786-0 renal

Cc1cc2c(C(=O)NC[C@H](C)c3ccccc3)c(O)c(O)cc2c(O)c1-c1c(C)cc2c(C(=O)NC[C@H](C)c3ccccc3)c(O)c(O)cc2c1O gave a GI50 (HT29 colon) of 1230 nM, a TGI (HT29 colon) of 3830 nM and a GI50 (MCF7 breast) of 309 nM. It also gave a TGI (MCF7 breast) of 1180 nM, a GI50 (MDA-MB-435 melanoma) of 540 nM and a TGI (MDA-MB-435 melanoma) of 2700 nM. For the same compound, the GI50 (KM12 colon) was 390 nM, the TGI (KM12 colon) was 1360 nM and the GI50 (SN12C renal) was 837 nM. For the same compound, the TGI (SN12C renal) was 2300 nM, the GI50 (MALME-3M melanoma) was 1590 nM and the TGI (MALME-3M melanoma) was 4430 nM. It also gave a GI50 (HOP-92 NSCLC) of 461 nM, a TGI (HOP-92 NSCLC) of 1560 nM and a GI50 (NCI-H226 lung) of 1130 nM. For the same compound, the TGI (NCI-H226 lung) was 2600 nM, the GI50 (HOP-62 NSCLC) was 666 nM and the TGI (HOP-62 NSCLC) was 2090 nM. For the same compound, the GI50 (NCI-H460 NSCLC) was 204 nM, the TGI (NCI-H460 NSCLC) was 424 nM and the GI50 (HCC-2998 colon) was 1380 nM. It also gave a TGI (HCC-2998 colon) of 3200 nM, a GI50 (T-47D breast) of 382 nM and a TGI (T-47D breast) of 1590 nM. For the same compound, the GI50 (PC-3 prostate) was 1370 nM, the TGI (PC-3 prostate) was 2750 nM and the GI50 (UO-31 renal) was 1220 nM. For the same compound, the TGI (UO-31 renal) was 2940 nM, the GI50 (MDA-MB-468 breast) was 187 nM and the TGI (MDA-MB-468 breast) was 374 nM. The GI50 (SK-OV-3 ovarian) was 1500 nM, the TGI (SK-OV-3 ovarian) was 3900 nM and the GI50 (LOX IMVI melanoma) was 1740 nM. For the same compound, the TGI (LOX IMVI melanoma) was 3270 nM, the GI50 (SK-MEL-2 melanoma) was 240 nM and the TGI (SK-MEL-2 melanoma) was 1030 nM. For the same compound, the GI50 (OVCAR-8 ovarian) was 1120 nM, the TGI (OVCAR-8 ovarian) was 2490 nM and the GI50 (SR leukemia) was 196 nM. The TGI (SR leukemia) was 369 nM, the GI50 (SK-MEL-28 melanoma) was 606 nM and the TGI (SK-MEL-28 melanoma) was 2400 nM. It also gave a GI50 (SW-620 colon) of 1480 nM, a TGI (SW-620 colon) of 3620 nM and a GI50 (SNB-19 CNS) of 413 nM. The TGI (SNB-19 CNS) was 1440 nM, the GI50 (HCT-15 colon) was 545 nM and the TGI (HCT-15 colon) was 2880 nM. The GI50 (MDA-MB-231 breast) was 654 nM, the TGI (MDA-MB-231 breast) was 2390 nM and the GI50 (SF-268 CNS) was 523 nM. The TGI (SF-268 CNS) was 1810 nM, the GI50 (MOLT-4 leukemia) was 218 nM and the TGI (MOLT-4 leukemia) was 404 nM. It also gave a GI50 (OVCAR-5 ovarian) of 558 nM, a TGI (OVCAR-5 ovarian) of 1980 nM and a GI50 (786-0 renal) of 1170 nM.
